# Molecular target: T1, recombinant IL4I1 (Homo sapiens, UniProt Q96RQ9)
# T1 construct: purchased R&D Systems 5684-AO-020
# T1 sequence (Q96RQ9 22-567): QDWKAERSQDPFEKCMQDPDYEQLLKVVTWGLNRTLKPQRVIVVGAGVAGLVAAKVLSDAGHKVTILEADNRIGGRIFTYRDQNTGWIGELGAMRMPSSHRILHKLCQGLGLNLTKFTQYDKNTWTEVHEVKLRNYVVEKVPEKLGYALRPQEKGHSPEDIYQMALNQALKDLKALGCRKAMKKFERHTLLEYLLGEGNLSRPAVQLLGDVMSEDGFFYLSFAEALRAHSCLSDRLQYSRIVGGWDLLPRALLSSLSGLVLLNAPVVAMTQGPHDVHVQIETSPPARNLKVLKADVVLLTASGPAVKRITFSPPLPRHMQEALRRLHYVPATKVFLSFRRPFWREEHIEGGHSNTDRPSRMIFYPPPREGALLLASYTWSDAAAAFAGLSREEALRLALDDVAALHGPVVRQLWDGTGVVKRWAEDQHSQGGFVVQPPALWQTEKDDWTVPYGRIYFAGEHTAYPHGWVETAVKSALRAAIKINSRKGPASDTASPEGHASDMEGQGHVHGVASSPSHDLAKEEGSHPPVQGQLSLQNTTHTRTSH
# Assay: IL4I1 Enzymatic Assay (Amplex Red/HRP coupled H2O2 detection)
# Type: biochemical
# Details: 240 min; four-hour pre-incubation with compound; 1 nM IL4I1, 1 mM each Phe/Tyr/Trp; ten-point titration; fluorescence readout; read-out: Potency EC50 (nM) (240 min)
# Procedure: Interleukin 4 inducible protein 1 (IL4I1) is an L-amino oxidase that catalyzes the oxidation of aromatic residues (Phe, Trp and Tyr): L-amino acid+H2O+O2→2-oxo acid+NH3+H2O2. Equal molar of H2O2 and the corresponding alpha-ketoacid are produced when IL4I1 and substrate are added. In this assay, the hydrogen peroxide generated by IL4I1 is then detected through a coupled reaction with Amplex Red (10-acetyl-3,7-dihydroxyphenoxazine) and […] (HRP) to produce Resorufin product that could be detected in the form of fluorescence signals. The assessment of the inhibitory effect of small molecules (EC50) on IL4I1 is measured by the effectiveness of the compounds to inhibit the production of H2O2.
# Using this assay, the potency (EC50) of each compound was determined from a ten-point (1:3 serial dilution) titration curve using the following outlined procedure. To each well of a black flat-bottom Greiner (Cat #781076) 384 well-plate, 25 nL of compound (0.1% DMSO in final assay volume of 25 μL) was dispensed, followed by the addition of 12.5 μL of 1x assay buffer (50 mM Hepes 7.0 and 0.005% Tween20 (Sigma, Cat #P8341; low peroxide grade)) containing 2 nM of recombinant IL4I1 (R&D Systems, Cat #5684-AO-020). Plates were placed in an ambient temperature humidified chamber for a four-hour pre-incubation with compound. Subsequently, each reaction was initiated by the addition of 12.5 μL 1x assay buffer containing 2 mM of each aromatic amino acids (Phe/Tyr/Trp), 0.1 mM Amplex Red and 2 U/mL of HRP. The final reaction in each well of 25 μL consists of 1 nM of IL411, 1 mM of each residues (Phe, Tyr and Trp), 0.05 mM Amplex Red and 1 U/mL of HRP. It should be noted that the concentrations of Amplex Red and HRP used here are in excess such that the conversion of H2O2 to Resorufin product occurs instantaneously and non-rate limiting. Reactions were allowed to proceed for 120 minutes followed by fluorescence readout on a Spectramax with the following set parameters: 544 nm excitation/590 nm emission, 570 nm cutoff (EnVision is an alternative reader). Dose-response curves were generated by plotting percent effect (% product conversion; Y-axis) vs. Log10 compound concentrations (X-axis). EC50 values were calculated using a non-linear regression, four-parameters sigmoidal dose-response model and are shown in Table 16.
row,SMILES,EC50 [nM]
1,"CC(C)Oc1cccc(Cn2c(=O)[nH]c3ccccc32)c1 [Example 71, 1-(3-isopropoxybenzyl)-1,3-dihydro-2H-benzo[d]imidazol-2-one]",45
2,"CC(=O)NCc1sc(Cn2c(=O)[nH]c3ccccc32)cc1Cl [Example 38, N-((3-chloro-5-((2-oxo-2,3-dihydro-1H-benzo[d]imidazol-1-yl)methyl)thiophen-2-yl)methyl)acetamide]",6
3,"O=C1CCCN1Cc1ccc(Cn2c(=O)[nH]c3ccccc32)cc1I [Example 19, 1-(3-iodo-4-((2-oxopyrrolidin-1-yl)methyl)benzyl)-1,3-dihydro-2H-benzo[d]imidazol-2-one]",14
4,"CNC(=O)c1cc(C)cc(Cn2c(=O)[nH]c3ccccc32)c1 [Example 48, N,3-dimethyl-5-((2-oxo-2,3-dihydro-1H-benzo[d]imidazol-1-yl)methyl)benzamide]",16
5,"O=c1[nH]c2ccccc2n1C[C@@H]1C[C@H]1c1ccccc1 [Example 61, 1-{[(1R,2R)-2-phenylcyclopropyl]methyl}-1,3-dihydro-2H-benzimidazol-2-one]",8
6,"O=c1[nH]c2ccc(F)cc2n1Cc1ccc2c(c1)CCC2 [Example 70, 1-((2,3-dihydro-1H-inden-5-yl)methyl)-6-fluoro-1,3-dihydro-2H-benzo[d]imidazol-2-one]",14
7,"O=c1[nH]c2ccccc2n1Cc1ccc(Cn2nncc2CO)cc1 (single isomer, unassigned) [Example 81, 1-(4-((5-(hydroxymethyl)-1H-1,2,3-triazol-1-yl)methyl)benzyl)-1,3-dihydro-2H-benzo[d]imidazol-2-one]",10
8,"CNC(=O)Cc1ccc(Cn2c(=O)[nH]c3ccc(F)cc32)cc1 [Example 67, 2-(4-((6-fluoro-2-oxo-2,3-dihydro-1H-benzo[d]imidazol-1-yl)methyl)phenyl)-N-methylacetamide]",9
9,"CN(Cc1ccc(Cn2c(=O)[nH]c3ccccc32)cc1)S(=O)(=O)C1CC1 [Example 75, N-methyl-N-(4-((2-oxo-2,3-dihydro-1H-benzo[d]imidazol-1-yl)methyl)benzyl)cyclopropanesulfonamide]",16
10,"COC1(C(=O)NCc2ccc(Cn3c(=O)[nH]c4ccccc43)cc2)CC1 [Example 96, 1-methoxy-N-(4-((2-oxo-2,3-dihydro-1H-benzo[d]imidazol-1-yl)methyl)benzyl)cyclopropane-1-carboxamide]",21
11,"CNC(=O)C1CCc2cc(Cn3c(=O)[nH]c4ccccc43)ccc21 (single isomer, unassigned) [Example 46, N-methyl-5-((2-oxo-2,3-dihydro-1H-benzo[d]imidazol-1-yl)methyl)-2,3-dihydro-1H-indene-1-carboxamide]",9
12,"C[C@H]1COC(=O)N1Cc1ccc(Cn2c(=O)[nH]c3ccccc32)cc1 [Example 83, (S)-4-methyl-3-(4-((2-oxo-2,3-dihydro-1H-benzo[d]imidazol-1-yl)methyl)benzyl) oxazolidin-2-one]",13
13,"O=c1[nH]c2ccccc2n1Cc1cccnc1 [Example 56, 1-(pyridin-3-ylmethyl)-1,3-dihydro-2H-benzo[d]imidazol-2-one]",2480
14,"Cc1ccc(C2CC2Cn2c(=O)[nH]c3ccccc32)nc1 (single isomer, unassigned) [Example 111, 1-((2-(5-methylpyridin-2-yl)cyclopropyl)methyl)-1,3-dihydro-2H-benzo[d]imidazol-2-one]",4
15,"O=C1CCCN1Cc1ccc(Cn2c(=O)[nH]c3ccccc32)c(F)c1 [Example 8, 1-({2-fluoro-4-[(2-oxopyrrolidin-1-yl)methyl]phenyl}methyl)-1,3-dihydro-2H-benzimidazol-2-one]",11
16,"CC(=O)NC1CCc2ccc(Cn3c(=O)[nH]c4ccccc43)cc21 (single isomer, unassigned) [Example 45, N-(6-((2-oxo-2,3-dihydro-1H-benzo[d]imidazol-1-yl)methyl)-2,3-dihydro-1H-inden-1-yl)acetamide]",21
17,"O=c1[nH]c2cccc(F)c2n1Cc1ccccc1 [Example 110, 1-benzyl-7-fluoro-1,3-dihydro-2H-benzimidazol-2-one]",9160
18,"O=c1[nH]c2c(N3CCCC3)cccc2n1Cc1ccccc1 [Example 93, 1-benzyl-4-(pyrrolidin-1-yl)-1,3-dihydro-2H-benzo[d]imidazol-2-one]",1340
19,"O=C(Cc1ccc(Cn2c(=O)[nH]c3ccccc32)cc1)N1CCC(F)C1 (stereo not drawn) [Example 108, 1-(4-(2-(3-fluoropyrrolidin-1-yl)-2-oxoethyl)benzyl)-1,3-dihydro-2H-benzo[d]imidazol-2-one]",8
20,"CC(=O)NCc1ccc(Cn2c(=O)[nH]c3ccc(Cl)cc32)cc1 [Example 64, N-(4-((6-chloro-2-oxo-2,3-dihydro-1H-benzo[d]imidazol-1-yl)methyl)benzyl)acetamide]",56
21,"N#CC1(c2cccc(Cn3c(=O)[nH]c4ccccc43)c2)CC1 [Example 35, 1-{3-[(2-oxo-2,3-dihydro-1H-benzimidazol-1-yl)methyl]phenyl} cyclopropane-1-carbonitrile]",2
22,"O=C1C=CCN1Cc1ccc(Cn2c(=O)[nH]c3ccccc32)cc1 [Example 2, 1-(4-((2-oxo-2,5-dihydro-1H-pyrrol-1-yl)methyl)benzyl)-1,3-dihydro-2H-benzo[d]imidazol-2-one]",13
23,"O=c1[nH]c2ccccc2n1CCCCc1cccc2cccnc12 [Example 114, 1-(4-(quinolin-8-yl)butyl)-1,3-dihydro-2H-benzo[d]imidazol-2-one]",107
24,"O=C1NCc2ccc(Cn3c(=O)[nH]c4ccccc43)cc21 [Example 10, 1-[(3-oxo-2,3-dihydro-1H-isoindol-5-yl)methyl]-1,3-dihydro-2H-benzimidazol-2-one]",22
25,"CC(=O)NCc1ccc(Cn2c(=O)n(C(F)F)c3ccccc32)cc1 [Example 76, N-(4-((3-(difluoromethyl)-2-oxo-2,3-dihydro-1H-benzo[d]imidazol-1-yl)methyl)benzyl)acetamide]",9
26,"CC[C@@H](NC(C)=O)c1ccc(Cn2c(=O)[nH]c3ccccc32)cc1 [Example 16, (R)-N-(1-(4-((2-oxo-2,3-dihydro-1H-benzo[d]imidazol-1-yl)methyl)phenyl)propyl)acetamide]",24
27,"CCc1ccc2c(c1)[nH]c(=O)n2Cc1ccccc1 [Example 109, 1-benzyl-5-ethyl-1,3-dihydro-2H-benzo[d]imidazol-2-one]",4940
28,"CC(=O)NCc1ccc(Cn2c(=O)[nH]c3ccccc32)c(C)c1 [Example 50, N-({3-methyl-4-[(2-oxo-2,3-dihydro-1H-benzimidazol-1-yl)methyl]phenyl}methyl)acetamide]",9
29,"CS(=O)(=O)NCc1ccc(Cn2c(=O)n(C(F)F)c3ccccc32)cc1 [Example 77, N-(4-((3-(difluoromethyl)-2-oxo-2,3-dihydro-1H-benzo[d]imidazol-1-yl)methyl)benzyl)methanesulfonamide]",6
30,"COc1cc(CNC(C)=O)ccc1Cn1c(=O)[nH]c2ccccc21 [Example 5, N-(3-methoxy-4-((2-oxo-2,3-dihydro-1H-benzo[d]imidazol-1-yl)methyl)benzyl)acetamide]",15
